One data set concerns mouse. The data set is described as follows: Single oral dose toxicity in mouse. In kind it is in vivo.
For data set [1], the system named is human insulin-like growth factor-1 (h-IGF-1) production in Hs68 cells. The data set is described as follows: Enhancement of h-IGF-1 production in Hs68 cells (ELISA). In kind it is cell-based. The method, then: (1) Human newborn foreskin […] Hs68 cells (ATCC CRL-1635) were cultured in a D-MEM medium (Bio Whittaker) containing 10% fetal calf serum (FBS; Gibco BRL) in the presence of 5% CO2 at 37°C to saturation in a culture vessel. Then, the cells were suspended in the medium at a concentration of 3 x 10^5/ml using a trypsin-EDTA solution (Bio Whittaker). 200 µl of the suspension was dispensed into each well of a 96-well microtiter plate. When the cells were almost saturated in the culture vessel after culturing for 5 days, the medium was discarded and a medium containing 4HCP at a concentration of 40, 100 or 200 µM was added thereto. The culture supernatant was recovered at intervals of 24 hours for up to 96 hours. The effect of 4HCP on enhancement of human insulin-like growth factor-1 (h-IGF-1) production in Hs68 cells was determined using ELISA-Kit for h-IGF-1 (Diagnostic System Labo).
(2) Hs68 cells were cultured in a D-MEM medium containing 10% fetal calf serum in the presence of 5% CO2 at 37°C to saturation in a culture vessel. Then, the cells were suspended in the medium at a concentration of 3 x 10^5/ml using a trypsin-EDTA solution. 200 µl of the suspension was dispensed into each well of a 96-well microtiter plate. When the cells were almost saturated in the culture vessel after culturing for 5 to 7 days, the medium was discarded and the medium containing cyclopentenone or GM at a concentration of 0, 2.5, 5, 10 or 20 µM was added thereto. The culture supernatant was recovered at 1, 3, 6, 12, 24 or 48 hours. The effect of cyclopentenone or GM on the production (enhancement of expression) of h-IGF-1 in Hs68 cells was determined using ELISA-Kit for h-IGF-1. […] The amount of h-IGF-1 produced 6 hours after the addition was about twice the amount for the control with no addition. […] (3) Hs68 cells were cultured in a D-MEM medium containing 10% fetal calf serum in the presence of 5% CO2 at 37°C to saturation in a culture vessel. Then, the cells were suspended in the medium at a concentration of 3 x 10^5/ml using a trypsin-EDTA solution. 200 µl of the suspension was dispensed into each well of a 96-well microtiter plate. When the cells were almost saturated in the culture vessel after culturing for 5 to 7 days, the medium was discarded and the medium containing 4HCP, a compound of formula (XVIII) (4HCP-GSH) or glutathione (GSH) at a concentration of 0, 25, 50, 100 or 200 µM was added thereto. The culture supernatant was recovered at 1, 3, 6, 12, 24 or 48 hours. The effect on the production (enhancement of expression) of h-IGF-1 in Hs68 cells was determined using ELISA-Kit for h-IGF-1. As a result, when 4HCP was added at a concentration of 25 to 200 µM, h-IGF production in Hs68 cells became maximal at 1 hour and decreased thereafter as the time went by. […] Significant enhancement of h-IGF-1 production was observed when cultured for 10 to 30 minutes. […]

Data set [2] deals with nerve growth factor production by L-M cells. Description: Enhancement of nerve growth factor production in L-M cells (enzyme immunoassay). In kind it is cell-based, Rat. The method, then: Rat fibroblast L-M cells (ATCC CCL-1.2) were suspended in a M199 medium (Gibco) containing 0.5% Bacto Peptone (Gibco) at a concentration of 1.0 x 10^5 cells/ml. 1 ml of the suspension was inoculated into each well of a 24-well plate. The cells were cultured aseptically. After culturing for 2 days, the medium was removed and substituted with a M199 medium containing 0.5% bovine serum albumin (Sigma). Then, cyclopentenone (final concentration of 1 to 25 µM), 4HCP (Aldrich) (final concentration of 12.5µM) or dipropionylcyclopentenone (final concentration of 3.1 to 9.4 µM) was added thereto. […]
After completion of the incubation, the concentration of nerve growth factor in the culture was measured by enzyme immunoassay (NGF Emax Immuno Assay System: Promega). […]

[3] abbreviates: single dose orally administered to a mouse at 100 mg/kg.
[4] abbreviates: Example 3-(3): 100 µM, cultivation time 1 hour, control 7.2.
The mark [5] stands for this setting: Example 3-(3): 100 µM, cultivation time 3 hour, control 8.9.
[6] abbreviates: Example 3-(3): 100 µM, cultivation time 6 hour, control 6.3.
The mark [7] stands for this setting: Example 3-(3): 100 µM, cultivation time 12 hour, control 0.
[8] abbreviates: Example 3-(3): 100 µM, cultivation time 24 hour, control 0.
Where [9] appears, read: Example 3-(3): 100 µM, cultivation time 48 hour, control 0.
[10] abbreviates: Example 3-(3): 200 µM, cultivation time 1 hour, control 7.2.
Setting [11] is: Example 3-(3): 200 µM, cultivation time 3 hour, control 8.9.
Where [12] appears, read: Example 3-(3): 200 µM, cultivation time 6 hour, control 6.3.
[13] abbreviates: Example 3-(3): 200 µM, cultivation time 12 hour, control 0.
Where [14] appears, read: Example 3-(3): 200 µM, cultivation time 24 hour, control 0.
[15] abbreviates: Example 3-(3): 200 µM, cultivation time 48 hour, control 0.

For the molecule `O=C(OC1C=CC(=O)C1OC(=O)c1ccccc1)c1ccccc1` (stereo not drawn), in the data set with mouse (setting [3]), the “death after single oral dose” value was “no example of death was observed”.

For the molecule `CC(C)(C)OC1C=CC(=O)C1OC(C)(C)C` (stereo not drawn) [4,5-di-t-butylcyclopentenone ether], the “death after single oral dose” value with mouse (mouse, in vivo, po, 100 mg/kg) is “no example of death was observed”.

For `O=C1C=CC(O)C1` (stereo not drawn) [4HCP, 4-hydroxy-2-cyclopenten-1-one], the “death after single oral dose” value in the data set on mouse (mouse, in vivo, po, 100 mg/kg) was “no example of death was observed”. Besides, the “Activity of enhancing h-IGF-1 production” value in data set [1] (Example 3-(1): 40 µM, cultivation time 24 hour, control 0) was 0 ng/mL; in data set [1] (Example 3-(1): 40 µM, cultivation time 48 hour, control 0), 0 ng/mL; in data set [1] (Example 3-(1): 40 µM, cultivation time 72 hour, control 0) it was 0 ng/mL; in data set [1] (Example 3-(1): 40 µM, cultivation time 96 hour, control 0), 0 ng/mL; in data set [1] (Example 3-(1): 100 µM, cultivation time 24 hour, control 0), 39.9 ng/mL; in data set [1] (Example 3-(1): 100 µM, cultivation time 48 hour, control 0), 10.0 ng/mL. Further, the “Activity of enhancing h-IGF-1 production” value came out at 9.6 ng/mL in data set [1] (Example 3-(1): 100 µM, cultivation time 72 hour, control 0); 4.4 ng/mL in data set [1] (Example 3-(1): 100 µM, cultivation time 96 hour, control 0); 37.9 ng/mL in data set [1] (Example 3-(1): 200 µM, cultivation time 24 hour, control 0); 10.4 ng/mL in data set [1] (Example 3-(1): 200 µM, cultivation time 48 hour, control 0); 9.9 ng/mL in data set [1] (Example 3-(1): 200 µM, cultivation time 72 hour, control 0); 4.2 ng/mL in data set [1] (Example 3-(1): 200 µM, cultivation time 96 hour, control 0). Also, the “time at which the activity of enhancing h-IGF production in Hs68 cells became maximal” value in data set [1] (Example 3-(1): 100 µM or more, sampled at 24, 48, 72, 96 hours) is 24 h. Besides, the “Activity of enhancing IGF-1 production” value is 30.6 ng/mL in data set [1] (Example 3-(3): 25 µM, cultivation time 1 hour, control 7.2); 29.5 ng/mL in data set [1] (Example 3-(3): 25 µM, cultivation time 3 hour, control 8.9); 9.6 ng/mL in data set [1] (Example 3-(3): 25 µM, cultivation time 6 hour, control 6.3); 0 ng/mL in data set [1] (Example 3-(3): 25 µM, cultivation time 12 hour, control 0); 0 ng/mL in data set [1] (Example 3-(3): 25 µM, cultivation time 24 hour, control 0); 0 ng/mL in data set [1] (Example 3-(3): 25 µM, cultivation time 48 hour, control 0). Further, the “Activity of enhancing IGF-1 production” value worked out at 49.5 ng/mL in data set [1] (Example 3-(3): 50 µM, cultivation time 1 hour, control 7.2); 42.1 ng/mL in data set [1] (Example 3-(3): 50 µM, cultivation time 3 hour, control 8.9); 27.8 ng/mL in data set [1] (Example 3-(3): 50 µM, cultivation time 6 hour, control 6.3); 0 ng/mL in data set [1] (Example 3-(3): 50 µM, cultivation time 12 hour, control 0); 0 ng/mL in data set [1] (Example 3-(3): 50 µM, cultivation time 24 hour, control 0); 0 ng/mL in data set [1] (Example 3-(3): 50 µM, cultivation time 48 hour, control 0). Besides, the “Activity of enhancing IGF-1 production” value in data set [1] (setting [4]) is 52.8 ng/mL; in data set [1] (setting [5]) it was 47.2 ng/mL; in data set [1] (setting [6]), 31 ng/mL; in data set [1] (setting [7]), 22.1 ng/mL; in data set [1] (setting [8]) it was 25.6 ng/mL; in data set [1] (setting [9]), 32 ng/mL. The “Activity of enhancing IGF-1 production” value in data set [1] (setting [10]) is 59.2 ng/mL; in data set [1] (setting [11]), 51.7 ng/mL; in data set [1] (setting [12]), 44.4 ng/mL; in data set [1] (setting [13]) it was 42.1 ng/mL; in data set [1] (setting [14]) it was 50.3 ng/mL; in data set [1] (setting [15]) it was 50.2 ng/mL. Also, the “expression of h-IGF-1 (result in words)” value in data set [1] (Example 3-(3): 100 µM or more, at 48 hours) is on record as “expression of h-IGF-1 was observed”. Also, the “time at which h-IGF production in Hs68 cells became maximal” value in data set [1] (Example 3-(3): 25 to 200 µM, sampled at 1 to 48 hours) came out at 1 h. Besides, the “Nerve growth factor concentration” value in data set [2] (12.5 µM, 24 hours, 0 µM control 0.138 (Table 2)) turned out to be 0.327 ng/mL. The “production of nerve growth factor by L-M cells (result in words)” value in data set [2] (24 hours incubation) is given as “enhanced the production of nerve growth factor by L-M cells in a concentration-dependent manner”.

Take `NC(CCC(=O)NC(CSC1CC(=O)CC1O)C(=O)NCC(=O)O)C(=O)O` (stereo not drawn) [4HCP-GSH]: the “Activity of enhancing IGF-1 production” value amounted to 8.4 ng/mL in data set [1] (setting [4]); 12 ng/mL in data set [1] (setting [5]); 10.6 ng/mL in data set [1] (setting [6]); 6.1 ng/mL in data set [1] (setting [7]); 6.7 ng/mL in data set [1] (setting [8]); 1.4 ng/mL in data set [1] (setting [9]). In addition, the “Activity of enhancing IGF-1 production” value in data set [1] (setting [10]) was 33.3 ng/mL; in data set [1] (setting [11]), 37.9 ng/mL; in data set [1] (setting [12]) it was 24.7 ng/mL; in data set [1] (setting [13]), 20.4 ng/mL; in data set [1] (setting [14]) it was 20.9 ng/mL; in data set [1] (setting [15]), 27.8 ng/mL. Further, in data set [1] (Example 3-(3): 100 to 200 µM), the “activity of enhancing h-IGF-1 (result in words)” value is reported as “exhibit an activity of enhancing h-IGF-1 in a concentration-dependent manner”.

Consider `CCCCCC(=O)OC1C=CC(=O)C1OC(=O)CCCCC` (stereo not drawn) [dihexanoylcyclopentenone], for which the “death after single oral dose” value with mouse (setting [3]) is reported as “no example of death was observed”.

With `N[C@@H](CCC(=O)N[C@@H](CS)C(=O)NCC(=O)O)C(=O)O` [glutathione, reference compound], the “activity of enhancing h-IGF-1 (result in words)” value in data set [1] (Example 3-(3): glutathione alone added, 25 to 200 µM) is listed as “no significant activity of enhancing h-IGF-1 was observed”.

di-2-hexenoylcyclopentenone: the “death after single oral dose” value in the data set with mouse (setting [3]) is “no example of death was observed”.

The record behind these values is patent publication EP1170007A1, “REMEDIES” (Takara Shuzo Co, Ltd., priority 1999, dated 2000).
